Assay results from EP4582423A1, “NOVEL TRICYCLIC DERIVATIVE COMPOUND AND USES THEREOF” (Hanmi Pharm. Co., Ltd., priority 2022, dated 2024).

Tested on: HCT116 MTAP-/- cells
Test: Cell growth inhibition test (SRB staining)
Assay type: cell-based
Conditions: Homo sapiens, HCT-116, 144 h; HCT116 MTAP-/- cells, 0.64 nM - 2,000 nM, 6 dose points, 6 days, SRB staining, absorbance at 540 nm; read-out: HCT116 MTAP-/- cell growth inhibition (GI50)
Method: The synthetic compounds above were tested for cell growth inhibition against HCT116 cells.
HCT116 MTAP-/- (homozygous knockout of MTAP gene in HCT116 MTAP-WT cells by CRISPER/Cas9 method) cells were maintained in RPMI1640 medium containing 10 % FBS and 1 % penicillin-streptomycin. Approximately 5×10^2 cells were seeded in a 96-well plate and treated with a test compound. (0.64 nM - 2,000 nM, 6 dose points for HCT116 MTAP-/- cells for 5x and 6 days) cell growth was measured by SRB staining and absorbance was detected at 540 nm on a Synergy™ NEO microplate reader. The 50 % growth inhibition value (GI50) of the cell line was calculated using GraphPad Prism V9 software.

SMILES | GI50 [nM]
COc1ccc(Nc2nc3c(=O)n(-c4ccccc4)c4cc(Cl)ccc4c3n2C)cc1 [Compound 40, 7-chloro-2-((4-methoxyphenyl)amino)-1-methyl-5-phenyl-1,5-dihydro-4H-imidazo[4,5-c]quinolin-4-one] | > 1000
COc1ccc(N(C)c2nc3c(=O)n(-c4ccccc4)c4cc(Cl)ccc4c3n2C)cc1 [Compound 41, 7-chloro-2-((4-methoxyphenyl)(methyl)amino)-1-methyl-5-phenyl-1,5-dihydro-4H-imidazo[4,5-c]quinolin-4-one] | > 1000
COc1ccc(Oc2nc3c(=O)n(-c4ccccc4)c4cc(Cl)ccc4c3n2C)cc1 [Compound 42, 7-chloro-2-(4-methoxyphenoxy)-1-methyl-5-phenyl-1,5-dihydro-4H-imidazo[4,5-c]quinolin-4-one] | > 1000
COc1ccc(Cc2nc3c(=O)n(-c4cccnc4C)c4cc(O)ccc4c3n2C)cc1 [Compound 43, 7-Hydroxy-2-(4-methoxybenzyl)-1-methyl-5-(2-methylpyridin-3-yl)-1,5-dihydro-4H-imidazo[4,5-c]quinolin-4-one] | > 1000
COc1ccc(Cc2nc3c(=O)n(-c4cccnc4C)c4cc(C(C)C)ccc4c3n2C)cc1 [Compound 48, 7-isopropyl-2-(4-methoxybenzyl)-1-methyl-5-(2-methylpyridin-3-yl)-1,5-dihydro-4H-imidazo[4,5-c]quinolin-4-one] | 100 to 500
COc1ccc(Cc2nc3c(=O)n(-c4cccnc4C)c4cc(C)ccc4c3n2C)cc1 [Compound 49, 2-(4-methoxybenzyl)-1,7-dimethyl-5-(2-methylpyridin-3-yl)-1,5-dihydro-4H-imidazo[4,5-c]quinolin-4-one] | 100 to 500
COc1ccc(Cc2nc3c(=O)n(-c4cccnc4C)c4cc(N5CCCC5)ccc4c3n2C)cc1 [Compound 50, 2-(4-methoxybenzyl)-1-methyl-5-(2-methylpyridin-3-yl)-7-(pyrrolidin-1-yl)-1,5-dihydro-4H-imidazo[4,5-c]quinolin-4-one] | > 1000
COc1ccc(Cc2nc3c(=O)n(-c4cccnc4C)c4cc(N)ccc4c3n2C)cc1 [Compound 52, 7-amino-2-(4-methoxybenzyl)-1-methyl-5-(2-methylpyridin-3-yl)-1,5-dihydro-4H-imidazo[4,5-c]quinolin-4-one] | 500 to 1000
COc1ccc(Cc2nc3c(=O)n(-c4ccc(OC(F)F)cc4)c4nc(C(F)(F)F)ccc4c3n2C)cc1 [Compound 56, 5-(4-(Difluoromethoxy)phenyl)-2-(4-methoxybenzyl)-1-methyl-7-(trifluoromethyl)-1,5-dihydro-4H-imidazo[4,5-c][1,8]naphthyridin-4-one] | > 1000
Cc1ncccc1-n1c(=O)c2nc(Cc3ccc(OC(F)F)cc3)n(C)c2c2ccc(C(F)(F)F)nc21 [Compound 58, 2-(4-(Difluoromethoxy)benzyl)-1-methyl-5-(2-methylpyridin-3-yl)-7-(trifluoromethyl)-1,5-dihydro-4H-imidazo[4,5-c][1,8]naphthyridin-4-one] | < 100
COc1ccc(Sc2nc3c(=O)n(-c4cccnc4C)c4nc(C(F)(F)F)ccc4c3n2C)cc1 [Compound 59, 2-((4-methoxyphenyl)thio)-1-methyl-5-(2-methylpyridin-3-yl)-7-(trifluoromethyl)-1,5-dihydro-4H-imidazo[4,5-c][1,8]naphthyridin-4-one] | < 100
Cc1ncccc1-n1c(=O)c2nc(Sc3ccc(F)cc3)n(C)c2c2ccc(C(F)(F)F)nc21 [Compound 60, 2-((4-fluorophenyl)thio)-1-methyl-5-(2-methylpyridin-3-yl)-7-(trifluoromethyl)-1,5-dihydro-4H-imidazo[4,5-c][1,8]naphthyridin-4-one] | 100 to 500
COc1ccc(Sc2nc3c(=O)n(-c4cccnc4C)c4nc(C(F)(F)F)ncc4c3n2C)cc1 [Compound 61, 2-((4-methoxyphenyl)thio)-1-methyl-5-(2-methylpyridin-3-yl)-7-(trifluoromethyl)-1,5-dihydro-4H-imidazo[4',5':4,5]pyrido[2,3-d]pyrimidin-4-one] | < 100
CCOc1ncc2c3c(nc(Cc4ccc(OC)cc4)n3C)c(=O)n(-c3cccnc3C)c2n1 [Compound 62, 7-ethoxy-2-(4-methoxybenzyl)-1-methyl-5-(2-methylpyridin-3-yl)-1,5-dihydro-4H-imidazo[4',5':4,5]pyrido[2,3-d]pyrimidin-4-one] | > 1000
COc1ccc2c3c(nc(Cc4ccc(OC(F)F)cc4)n3C)c(=O)n(-c3cccnc3C)c2n1 [Compound 63, 2-(4-(difluoromethoxy)benzyl)-7-methoxy-1-methyl-5-(2-methylpyridin-3-yl)-1,5-dihydro-4H-imidazo[4,5-c][1,8]naphthyridin-4-one] | < 100
COc1ccc(Cc2nc3c(=O)n(-c4cccnc4C)c4nc(OC)ccc4c3n2C)cc1 [Compound 64, 7-methoxy-2-(4-methoxybenzyl)-1-methyl-5-(2-methylpyridin-3-yl)-1,5-dihydro-4H-imidazo[4,5-c][1,8]naphthyridin-4-one] | < 100
CCc1ccc2c3c(nc(Cc4ccc(OC(F)F)cc4)n3C)c(=O)n(-c3cccnc3C)c2n1 [Compound 65, 2-(4-(difluoromethoxy)benzyl)-7-ethyl-1-methyl-5-(2-methylpyridin-3-yl)-1,5-dihydro-4H-imidazo[4,5-c][1,8]naphthyridin-4-one] | < 100
Cc1ncccc1-n1c(=O)c2nc(Cc3ccc(OC(F)F)cc3)n(C)c2c2ccc(C3CC3)nc21 [Compound 66, 7-cyclopropyl-2-(4-(difluoromethoxy)benzyl)-1-methyl-5-(2-methylpyridin-3-yl)-1,5-dihydro-4H-imidazo[4,5-c][1,8]naphthyridin-4-one] | < 100

The remaining lines, values ahead:

GI50 [nM] | SMILES
< 100 | Cc1ncccc1-n1c(=O)c2nc(Sc3ccc(F)cc3)n(C)c2c2ccc(Cl)cc21 [Compound 36, 7-chloro-2-((4-fluorophenyl)thio)-1-methyl-5-(2-methylpyridin-3-yl)-1,5-dihydro-4H-imidazo[4,5-c]quinolin-4-one]
< 100 | Cc1ncccc1-n1c(=O)c2nc(Sc3ccc(F)c(F)c3)n(C)c2c2ccc(Cl)cc21 [Compound 37, 7-chloro-2-((3,4-difluorophenyl)thio)-1-methyl-5-(2-methylpyridin-3-yl)-1,5-dihydro-4H-imidazo[4,5-c]quinolin-4-one]
< 100 | Cc1ncccc1-n1c(=O)c2nc(Sc3ccc4c(c3)OCO4)n(C)c2c2ccc(Cl)cc21 [Compound 38, 2-(benzo[d][1,3]dioxol-5-ylthio)-7-chloro-1-methyl-5-(2-methylpyridin-3-yl)-1,5-dihydro-4H-imidazo[4,5-c]quinolin-4-one]
< 100 | Cc1ncccc1-n1c(=O)c2nc(Sc3ccc(F)cc3F)n(C)c2c2ccc(Cl)cc21 [Compound 39, 7-chloro-2-((2,4-difluorophenyl)thio)-1-methyl-5-(2-methylpyridin-3-yl)-1,5-dihydro-4H-imidazo[4,5-c]quinolin-4-one]
< 100 | C=Cc1ccc2c3c(nc(Cc4ccc(OC)cc4)n3C)c(=O)n(-c3cccnc3C)c2c1 [Compound 44, 2-(4-methoxybenzyl)-1-methyl-5-(2-methylpyridin-3-yl)-7-vinyl-1,5-dihydro-4H-imidazo[4,5-c]quinolin-4-one]
< 100 | CCc1ccc2c3c(nc(Cc4ccc(OC)cc4)n3C)c(=O)n(-c3cccnc3C)c2c1 [Compound 45, 7-Ethyl-2-(4-methoxybenzyl)-1-methyl-5-(2-methylpyridin-3-yl)-1,5-dihydro-4H-imidazo[4,5-c]quinolin-4-one]
< 100 | COc1ccc(Cc2nc3c(=O)n(-c4cccnc4C)c4cc(C5CC5)ccc4c3n2C)cc1 [Compound 46, 7-Cyclopropyl-2-(4-methoxybenzyl)-1-methyl-5-(2-methylpyridin-3-yl)-1,5-dihydro-4H-imidazo[4,5-c]quinolin-4-one]
< 100 | C#Cc1ccc2c3c(nc(Cc4ccc(OC)cc4)n3C)c(=O)n(-c3cccnc3C)c2c1 [Compound 47, 7-ethynyl-2-(4-methoxybenzyl)-1-methyl-5-(2-methylpyridin-3-yl)-1,5-dihydro-4H-imidazo[4,5-c]quinolin-4-one]
< 100 | COc1ccc(Cc2nc3c(=O)n(-c4cccnc4C)c4cc(OC)ccc4c3n2C)cc1 [Compound 51, 7-methoxy-2-(4-methoxybenzyl)-1-methyl-5-(2-methylpyridin-3-yl)-1,5-dihydro-4H-imidazo[4,5-c]quinolin-4-one]
< 100 | CNc1ccc2c3c(nc(Cc4ccc(OC)cc4)n3C)c(=O)n(-c3cccnc3C)c2c1 [Compound 53, 2-(4-methoxybenzyl)-1-methyl-7-(methylamino)-5-(2-methylpyridin-3-yl)-1,5-dihydro-4H-imidazo[4,5-c]quinolin-4-one]
< 100 | CCc1ccc2c3c(nc(Cc4ccc(OC(F)F)cc4)n3C)c(=O)n(-c3cccnc3C)c2c1 [Compound 54, 2-(4-(difluoromethoxy)benzyl)-7-ethyl-1-methyl-5-(2-methylpyridin-3-yl)-1,5-dihydro-4H-imidazo[4,5-c]quinolin-4-one]
< 100 | COc1ccc2c3c(nc(Cc4ccc(OC(F)F)cc4)n3C)c(=O)n(-c3cccnc3C)c2c1 [Compound 55, 2-(4-(Difluoromethoxy)benzyl)-7-methoxy-1-methyl-5-(2-methylpyridin-3-yl)-1,5-dihydro-4H-imidazo[4,5-c]quinolin-4-one]
< 100 | COc1ccc(Cc2nc3c(=O)n(-c4cccnc4C)c4nc(C(F)(F)F)ccc4c3n2C)cc1 [Compound 57, 2-(4-methoxybenzyl)-1-methyl-5-(2-methylpyridin-3-yl)-7-(trifluoromethyl)-1,5-dihydro-4H-imidazo[4,5-c][1,8]naphthyridin-4-one]
